# Values quoted from earlier work as cited in US20030167999A1, “Crystal” (priority 2000, published 2003).
# Legend:
# [1] = target: hAR LBD M787V (Homo sapiens, UniProt P10275, M788V)
# [2] = target: hAR M7421 (Homo sapiens, UniProt P10275, M743I)
# [3] = target: wild-type hAR (Homo sapiens, UniProt P10275)
# [4] = target: T1, wild-type hPR (Homo sapiens, UniProt P06401); settings: with respect to progesterone (RBA=100)
# T1 sequence (P06401 1-933): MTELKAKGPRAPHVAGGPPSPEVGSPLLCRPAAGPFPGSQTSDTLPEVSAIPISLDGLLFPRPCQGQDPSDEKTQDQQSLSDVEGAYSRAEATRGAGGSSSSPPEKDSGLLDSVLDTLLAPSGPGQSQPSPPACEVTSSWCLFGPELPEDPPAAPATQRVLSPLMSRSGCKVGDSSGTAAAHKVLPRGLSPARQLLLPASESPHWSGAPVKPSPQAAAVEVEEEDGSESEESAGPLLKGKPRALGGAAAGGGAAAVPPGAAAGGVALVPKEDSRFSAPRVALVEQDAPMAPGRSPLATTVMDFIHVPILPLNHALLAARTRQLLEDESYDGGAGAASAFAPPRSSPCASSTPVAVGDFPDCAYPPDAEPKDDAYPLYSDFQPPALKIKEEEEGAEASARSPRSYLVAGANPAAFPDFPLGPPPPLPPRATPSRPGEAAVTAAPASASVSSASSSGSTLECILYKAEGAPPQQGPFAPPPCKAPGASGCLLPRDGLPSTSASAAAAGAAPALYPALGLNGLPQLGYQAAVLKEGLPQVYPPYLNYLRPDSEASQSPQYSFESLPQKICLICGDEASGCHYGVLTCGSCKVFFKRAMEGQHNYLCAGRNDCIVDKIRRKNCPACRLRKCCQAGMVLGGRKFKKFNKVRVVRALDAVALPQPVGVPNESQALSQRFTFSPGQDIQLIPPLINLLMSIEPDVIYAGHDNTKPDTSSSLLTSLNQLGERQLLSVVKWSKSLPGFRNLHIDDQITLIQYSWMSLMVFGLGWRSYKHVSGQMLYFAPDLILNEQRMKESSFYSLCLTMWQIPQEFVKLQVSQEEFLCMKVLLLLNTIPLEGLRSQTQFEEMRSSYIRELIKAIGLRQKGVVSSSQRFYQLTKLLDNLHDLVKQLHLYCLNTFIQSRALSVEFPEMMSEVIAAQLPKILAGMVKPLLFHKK
# [5] = target: AR receptor of LNCaP (T877A) (Homo sapiens, UniProt P10275, T878A); settings: single point mutation T877A
# AR receptor of LNCaP (T877A), sequence (P10275 whole entry T878A): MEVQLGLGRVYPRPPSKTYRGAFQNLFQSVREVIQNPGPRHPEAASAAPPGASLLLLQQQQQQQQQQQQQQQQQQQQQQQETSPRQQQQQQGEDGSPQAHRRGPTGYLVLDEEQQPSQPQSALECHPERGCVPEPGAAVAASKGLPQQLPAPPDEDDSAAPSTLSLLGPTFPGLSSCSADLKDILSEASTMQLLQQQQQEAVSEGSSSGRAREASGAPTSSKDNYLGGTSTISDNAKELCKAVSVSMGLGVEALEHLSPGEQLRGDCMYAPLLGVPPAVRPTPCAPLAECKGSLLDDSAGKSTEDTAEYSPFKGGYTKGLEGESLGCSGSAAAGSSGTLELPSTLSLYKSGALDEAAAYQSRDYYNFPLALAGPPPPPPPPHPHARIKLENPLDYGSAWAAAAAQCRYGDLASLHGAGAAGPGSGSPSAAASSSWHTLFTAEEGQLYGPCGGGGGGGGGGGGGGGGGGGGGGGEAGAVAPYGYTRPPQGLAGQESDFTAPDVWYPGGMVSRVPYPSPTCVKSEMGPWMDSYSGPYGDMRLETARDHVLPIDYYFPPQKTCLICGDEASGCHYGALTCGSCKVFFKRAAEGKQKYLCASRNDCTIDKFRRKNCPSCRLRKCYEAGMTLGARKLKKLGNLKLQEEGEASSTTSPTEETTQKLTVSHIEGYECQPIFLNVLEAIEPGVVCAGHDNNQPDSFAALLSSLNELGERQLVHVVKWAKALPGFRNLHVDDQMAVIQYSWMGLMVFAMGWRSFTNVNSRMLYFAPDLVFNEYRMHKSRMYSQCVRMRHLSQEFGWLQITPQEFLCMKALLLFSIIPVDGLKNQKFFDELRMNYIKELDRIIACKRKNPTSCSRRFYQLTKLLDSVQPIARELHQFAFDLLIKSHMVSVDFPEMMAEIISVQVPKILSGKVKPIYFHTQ
# [6] = target: hAR mutant L707R (Homo sapiens, UniProt P10275, L708R); settings: Scatchard plot analysis
# hAR mutant L707R, sequence (P10275 whole entry L708R): as the sequence (P10275 whole entry T878A) above, with L708R, A878T counted along it
# [7] = target: hAR mutation F764S (Homo sapiens, UniProt P10275, F765S)
# hAR mutation F764S, sequence (P10275 whole entry F765S): as the sequence (P10275 whole entry T878A) above, with F765S, A878T counted along it
# [8] = target: hAR M742V (Homo sapiens, UniProt P10275, M743V)
# hAR M742V, sequence (P10275 whole entry M743V): as the sequence (P10275 whole entry T878A) above, with M743V, A878T counted along it
# hAR LBD M787V, sequence (P10275 whole entry M788V, the tested form may be a part): as the sequence (P10275 whole entry T878A) above, with M788V, A878T counted along it
# wild-type hAR, sequence (P10275 whole entry): as the sequence (P10275 whole entry T878A) above, with A878T counted along it
# hAR M7421, sequence (P10275 whole entry M743I): as the sequence (P10275 whole entry T878A) above, with M743I, A878T counted along it
structure (smiles),measurement,setting,value
"C[C@]1(O)CC[C@H]2[C@@H]3CCC4=CC(=O)CCC4=C3C=C[C@@]21C [R1881, metribolone]",binding,[1],undetectable or strongly reduced
same,effect of mutation on binding affinity,[2],dramatically reduce
same,relative binding affinity (RBA),[3],290
same,relative binding affinity (RBA),[4],190
same,R1881 binding versus wild type,[5],identical
same,binding affinity,[6],undetectable
same,ligand dissociation,[7],rapid ligand dissociation
same,effect of mutation on binding affinity,[8],dramatically reduce
